Key:
BK channels = target: T1, BK channels (Homo sapiens, UniProt Q12791); test: BK channel opening activity, two-electrode voltage clamp in Xenopus laevis oocytes; format: cell-based
T1 construct: expressed in transfected cells; host or cells: Xenopus laevis oocytes
Protocol: In this example the BK channel opening activity of Compound 1 (i.e. N-(2-Benzo[d]isoxazol-3-yl-acetyl)-methanesulfonamide) is determined using BK channels heterologously expressed in Xenopus laevis oocytes.
The electrical current through the BK channel was measured using conventional two-electrode voltage clamp. BK currents were activated by repeating ramp protocols. In brief, the membrane potential was continuously changed from −120 mV to +120 mV within a 2 s period. The threshold for BK activation is approximately +30 mV under control conditions. Compounds were applied for 100 s during which the ramp protocol was repeated 10 times with 10 s intervals. In between the ramp protocols the membrane potential was clamped at −80 mV. The first three compound applications were control blanks where the current level is allowed to stabilize.
In order to evaluate the ability of the compounds to shift the BK activation curve towards lower membrane potentials, the BK current was transformed into conductance by using Ohm's law g=I/(Ememb−Erev), where g is the conductance, I is the current, Ememb is the membrane potential and Erev is the reversal potential. The extracellular solution for these experiments contained 2.5 mM K+ and the intracellular K+ concentration of an oocyte was estimated to be 100 mM. Under those conditions, Nernst equation predicts a reversal potential of Erev=−93.2 mV. The control conductance level at a membrane potential of +100 mV was calculated, and the compound effect was evaluated as the potential difference, ΔV, to the membrane potential at which the same conductance level was obtained in the presence of compound.
The concentration response curve for this potential difference was fitted to the sigmoidal logistic equation: ΔV=ΔVmax/(1+(EC50/[compound])^n), where ΔVmax represents the maximal left shift of the BK activation curve, EC50 is the concentration causing a half maximal response, and n is the slope coefficient.

T1 sequence (Q12791 whole entry): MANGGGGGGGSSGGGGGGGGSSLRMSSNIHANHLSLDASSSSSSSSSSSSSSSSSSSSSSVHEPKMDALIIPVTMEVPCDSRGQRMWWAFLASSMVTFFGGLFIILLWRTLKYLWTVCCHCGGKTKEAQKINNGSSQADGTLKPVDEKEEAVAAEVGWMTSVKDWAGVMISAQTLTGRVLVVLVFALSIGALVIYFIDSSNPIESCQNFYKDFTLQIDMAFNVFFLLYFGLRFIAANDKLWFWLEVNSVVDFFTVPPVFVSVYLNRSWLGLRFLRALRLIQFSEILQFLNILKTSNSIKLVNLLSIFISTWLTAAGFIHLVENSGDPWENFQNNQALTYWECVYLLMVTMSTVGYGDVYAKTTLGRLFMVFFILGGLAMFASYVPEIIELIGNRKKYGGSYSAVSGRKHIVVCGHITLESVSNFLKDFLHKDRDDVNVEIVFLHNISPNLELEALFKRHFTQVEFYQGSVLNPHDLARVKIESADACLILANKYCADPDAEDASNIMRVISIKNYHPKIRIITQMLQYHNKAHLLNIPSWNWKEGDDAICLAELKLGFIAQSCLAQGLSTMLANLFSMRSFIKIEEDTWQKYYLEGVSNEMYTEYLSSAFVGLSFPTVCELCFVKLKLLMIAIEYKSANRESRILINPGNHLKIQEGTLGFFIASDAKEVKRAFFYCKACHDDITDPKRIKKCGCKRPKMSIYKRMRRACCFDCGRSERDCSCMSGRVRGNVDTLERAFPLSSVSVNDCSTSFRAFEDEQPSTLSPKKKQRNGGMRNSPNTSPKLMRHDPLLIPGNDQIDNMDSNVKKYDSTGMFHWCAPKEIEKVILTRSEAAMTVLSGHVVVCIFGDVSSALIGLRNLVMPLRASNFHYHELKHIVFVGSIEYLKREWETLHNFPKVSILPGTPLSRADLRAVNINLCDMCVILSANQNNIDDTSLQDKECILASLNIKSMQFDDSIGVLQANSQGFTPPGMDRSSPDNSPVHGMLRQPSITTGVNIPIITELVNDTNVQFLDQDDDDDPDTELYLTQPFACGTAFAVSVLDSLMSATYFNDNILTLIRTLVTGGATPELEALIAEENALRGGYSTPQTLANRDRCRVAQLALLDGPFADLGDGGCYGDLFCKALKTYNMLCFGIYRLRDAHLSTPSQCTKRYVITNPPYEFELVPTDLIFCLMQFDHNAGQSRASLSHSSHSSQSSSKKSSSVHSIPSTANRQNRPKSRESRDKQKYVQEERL

## CS(=O)(=O)NC(=O)Cc1noc2ccccc12 [Compound 1, N-(2-Benzo[d]isoxazol-3-yl-acetyl)-methanesulfonamide]
other
  melting point: 167 to 171 °C
BK channels; BK channels heterologously expressed in Xenopus laevis oocytes, 0.01-31.6 μM, fitted to sigmoidal logistic equation
  ΔVmax, maximal left-shift of the BK activation curve: −15 mV
BK channels; BK channels heterologously expressed in Xenopus laevis oocytes, 0.01-31.6 μM, ΔV at control conductance level of +100 mV, fitted to sigmoidal logistic equation, read-out: EC50 for the left-shift of the BKCa-activation curve
  EC50: 300 nM
BK channels; increasing concentrations (0.01-31.6 μM), ramp protocol −120 mV to +120 mV, Xenopus laevis oocytes
  BK current level at depolarizing potentials: marked increase in the current level

Reference: patent US20100168192A1, “BENZISOXAZOLE DERIVATIVES AS POTASSIUM CHANNEL MODULATORS FOR THE TREATMENT OF E.G. RESPIRATORY DISEASES, EPILEPSY AND CONVULSIONS” (NeuroSearch A/S, priority 2007, published 2010)
